# In patent US9320733B2, “Assessment and modulation of cerebrospinal fluid for head pain” (priority 2010, dated 2016):
# Test system: patient with headache (CSF pressures 13-14 cmW)
# Assay: Case report (Example 1): one patient with 10 years of headache and normal CSF pressure, treated by CSF removal via lumbar puncture and then Diamox
# Type: in vivo, human
# Procedure: Therefore more CSF was drained 10 ml total. […] For example triptans may be combined with Diamox or diuretics, triptans may be combined with NSAM or Lumbar puncture, shunts or intraocular drainage procedures may be use singularly or together.
"postdural puncture headache (PDPH) while on treatment (3 days after LP with 10 ml CSF drained and start of Diamox, PDPH lost on brief discontinuation)",SMILES,"response of the major headache component to medication (10 years of headache, before CSF removal)","usual headache after being placed on Diamox (after removal of 10 ml CSF by LP, 3 days later)","symptom status on maintenance treatment (low dose Diamox, after CSF removal)"
,"CC1(C)O[C@@H]2[C@@H](CO[C@@]3(COS(N)(=O)=O)OC(C)(C)O[C@@H]23)O1 [Topamax, topiramate]",refractory to treatment,,
developed postdurai puncture headache,"CC(=O)Nc1nnc(S(N)(=O)=O)s1 [Diamox, acetazolamide]",,total absence of their usual headache,symptom free
